The results in this text go back to patent US12565501B2, “Muscarinic acetylcholine M1 receptor antagonists” (Contineum Therapeutics, Inc., priority 2019, dated 2026).

Molecules are shown by their SMILES.

For this test, the target named is T1, human M1 receptor (Homo sapiens, UniProt P11229).
T1 sequence (P11229 1-460): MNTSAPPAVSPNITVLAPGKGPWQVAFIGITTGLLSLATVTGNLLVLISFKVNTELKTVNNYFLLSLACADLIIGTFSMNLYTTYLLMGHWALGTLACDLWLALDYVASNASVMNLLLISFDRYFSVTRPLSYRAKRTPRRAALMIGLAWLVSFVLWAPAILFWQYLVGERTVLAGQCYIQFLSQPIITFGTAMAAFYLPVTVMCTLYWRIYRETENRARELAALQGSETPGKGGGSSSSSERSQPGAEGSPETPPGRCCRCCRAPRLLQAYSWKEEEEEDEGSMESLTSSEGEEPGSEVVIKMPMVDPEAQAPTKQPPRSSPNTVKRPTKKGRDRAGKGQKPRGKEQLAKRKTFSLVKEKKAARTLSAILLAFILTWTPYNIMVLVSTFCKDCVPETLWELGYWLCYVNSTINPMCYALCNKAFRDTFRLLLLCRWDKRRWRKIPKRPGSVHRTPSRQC
The experiment in a line: In vitro functional assay of muscarinic acetylcholine receptor activity (aequorin calcium flux, reversal of EC80 acetylcholine response). Type of test: cell-based. The following applies: CHO-K1 cells stably expressing human M1 receptor with aequorin; acetylcholine at EC80; calcium flux (luminescence); read-out: M1 IC50. In a few lines: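 CHO-K1 cells expressing human M1 and aequorin, loaded with 5 μM coelenterazine for 4 h, preincubated with compound 30 min at room temperature, then challenged with EC80 acetylcholine.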
By IC50 is commonly meant the concentration that inhibits the measured activity by half. Consider `COc1cccc(C2(NCC(=O)N3CC4CCC(C3)N4c3ccc(C#N)cn3)CC2)c1` [Example 98], for which the IC50 was less than 10 nM.
As to `N#Cc1ccc(N2[C@@H]3CC[C@H]2CN(C(=O)CCNC2(c4cncc(F)c4)CC2)C3)nc1` [Example 30, 6-(3-(3-((1-(5-fluoropyridin-3-yl)cyclopropyl)amino)propanoyl)-3,8-diazabicyclo[3.2.1]octan-8-yl)nicotinonitrile], the IC50 is 100 to 1000 nM.
With `N#Cc1ccc(N2[C@@H]3CC[C@H]2CN(C(=O)CCNC2(c4ccc(F)c(F)c4)CCC2)C3)nc1` [Example 37, 6-(3-(3-((1-(3,4-difluorophenyl)cyclobutyl)amino)propanoyl)-3,8-diazabicyclo[3.2.1]octan-8-yl)nicotinonitrile], the IC50 is less than 10 nM.
As to `COc1cc(C2(NCC(=O)N3CC4CCC(C3)N4c3ccc(C#N)cn3)CC2)c(F)cc1F` [Example 113, 6-(3-((1-(2,4-difluoro-5-methoxyphenyl)cyclopropyl)glycyl)-3,8-diazabicyclo[3.2.1]octan-8-yl)nicotinonitrile], the IC50 was less than 10 nM.
`COc1cc(C2(OCC(=O)N3CC4CCC(C3)N4c3ccc(C#N)cn3)CCCC2)ccn1` [Example 267, 6-(3-(2-((1-(2-methoxypyridin-4-yl)cyclopentyl)oxy)acetyl)-3,8-diazabicyclo[3.2.1]octan-8-yl)nicotinonitrile]: the IC50 is 10 to 100 nM.
Regarding `N#Cc1ccc(N2C3CCC2CN(C(=O)COC2(c4cccc(Br)c4F)CC2)C3)nc1` [Example 219, 6-(3-(2-(1-(3-bromo-2-fluorophenyl)cyclopropoxy)acetyl)-3,8-diazabicyclo[3.2.1]octan-8-yl)nicotinonitrile], the IC50 is 10 to 100 nM.
`N#Cc1ccc(N2C3CCC2CN(C(=O)COC2CCc4ccc(F)cc42)C3)nc1` (racemic) [Example 183, 6-(3-(2-((6-fluoro-2,3-dihydro-1H-inden-1-yl)oxy)acetyl)-3,8-diazabicyclo[3.2.1]octan-8-yl)nicotinonitrile]: the IC50 lay in the range of 10 to 100 nM.
The result for `COc1cccc(C2(NCC(=O)N3CC4CCC(C3)N4c3ccc(C#N)cn3)CC2)c1F` [Example 103, 6-(3-((1-(2-fluoro-3-methoxyphenyl)cyclopropyl)glycyl)-3,8-diazabicyclo[3.2.1]octan-8-yl)nicotinonitrile] reads 10 to 100 nM; that for `CC(c1ccc(F)cc1)[S+]([O-])CCC(=O)N1CC2CCC(C1)N2c1ccc(C#N)cn1` (racemic) [Example 170, 6-(3-(3-((1-(4-fluorophenyl)ethyl)sulfinyl)propanoyl)-3,8-diazabicyclo[3.2.1]octan-8-yl) nicotinonitrile], more than 1000 nM.
Consider `CC(OCC(=O)N1CC2CCC(C1)N2c1ccc(C#N)cn1)c1cccn2ncnc12` (racemic) [Example 196, 6-(3-(2-(1-([1,2,4]triazolo[1,5-a]pyridin-8-yl)ethoxy)acetyl)-3,8-diazabicyclo[3.2.1]octan-8-yl)nicotinonitrile], for which the half-maximal inhibitory concentration (IC50) is less than 10 nM.
On to `N#Cc1ccc(N2C3CCC2CN(C(=O)CNC2(c4c(F)cccc4F)CC2)C3)nc1` [Example 72, 6-(3-((1-(2,6-difluorophenyl)cyclopropyl)glycyl)-3,8-diazabicyclo[3.2.1]octan-8-yl)nicotinonitrile], for which the IC50 is 100 to 1000 nM.
Under `COc1cncc(C(OCC(=O)N2CC3CCC(C2)N3c2ccc(C#N)cn2)C(F)F)c1` (racemic) [Example 202, 6-(3-(2-(2,2-difluoro-1-(5-methoxypyridin-3-yl)ethoxy)acetyl)-3,8-diazabicyclo[3.2.1]octan-8-yl)nicotinonitrile] stands less than 10 nM.
Under `CC(C)(NCCC(=O)N1C[C@H]2CC[C@@H](C1)N2c1ccc(C#N)cn1)c1cccc2ncccc12` [Example 25, 6-(3-(3-((2-(quinolin-5-yl)propan-2-yl)amino)propanoyl)-3,8-diazabicyclo[3.2.1]octan-8-yl)nicotinonitrile] stands less than 10 nM.
As for `N#Cc1ccc(N2[C@@H]3CC[C@H]2CN(C(=O)CCNC2(c4ccc(F)c(F)c4)CC2)C3)nn1` [Example 42, 6-(3-(3-((1-(3,4-difluorophenyl)cyclopropyl)amino)propanoyl)-3,8-diazabicyclo[3.2.1]octan-8-yl)pyridazine-3-carbonitrile], the IC50 was less than 10 nM.
The result for `CC(SCC(=O)N1CC2CCC(C1)N2c1ccc(C#N)cn1)c1ccccc1` (racemic) [Example 132, 6-(3-(2-((1-phenylethyl)thio)acetyl)-3,8-diazabicyclo[3.2.1]octan-8-yl)nicotinonitrile] reads less than 10 nM; that for `N#Cc1ccc(N2C3CCC2CN(C(=O)COC2(c4ccccc4F)CC2)C3)nc1` [Example 207, 6-(3-(2-(1-(2-fluorophenyl)cyclopropoxy)acetyl)-3,8-diazabicyclo[3.2.1]octan-8-yl)nicotinonitrile], 10 to 100 nM; that for `N#Cc1ccc(N2C3CCC2CN(C(=O)COC2(c4cncc(F)c4)CC2)C3)nc1` [Example 229, 6-(3-(2-(1-(5-fluoropyridin-3-yl)cyclopropoxy)acetyl)-3,8-diazabicyclo[3.2.1]octan-8-yl)nicotinonitrile], 100 to 1000 nM.
`COc1cccc(C2(OCC(=O)N3CC4CCC(C3)N4c3ccc(C#N)cn3)CCC2)c1` [Example 237, 6-(3-(2-(1-(3-methoxyphenyl)cyclobutoxy)acetyl)-3,8-diazabicyclo[3.2.1]octan-8-yl)nicotinonitrile]: the IC50 is less than 10 nM.
For the molecule `N#Cc1ccc(N2C3CCC2CN(C(=O)COC2(c4ccc(F)cc4C#N)CC2)C3)nc1` [Example 297, 6-(3-(2-(1-(2-cyano-4-fluorophenyl)cyclopropoxy)acetyl)-3,8-diazabicyclo[3.2.1]octan-8-yl)nicotinonitrile], the IC50 lay in the range of 10 to 100 nM.
In the case of `Cc1noc(C)c1C(C)OCC(=O)N1CC2CCC(C1)N2c1ccc(C#N)cn1` (racemic) [Example 197, 6-(3-(2-(1-(3,5-dimethylisoxazol-4-yl)ethoxy)acetyl)-3,8-diazabicyclo[3.2.1]octan-8-yl)nicotinonitrile], the IC50 was less than 10 nM.
The result for `N#Cc1ccc(N2C3CCC2CN(C(=O)CN2CC(c4ccc(F)cc4)C2)C3)nc1` [Example 105, 6-(3-(2-(3-(4-fluorophenyl)azetidin-1-yl)acetyl)-3,8-diazabicyclo[3.2.1]octan-8-yl)nicotinonitrile] reads more than 1000 nM; that for `Cc1ccc(N2C3CCC2CN(C(=O)CNC2(c4ccc(F)cc4F)CC2)C3)nn1` [Example 86, 2-((1-(2,4-difluorophenyl)cyclopropyl)amino)-1-(8-(6-methylpyridazin-3-yl)-3,8-diazabicyclo[3.2.1]octan-3-yl)ethan-1-one], 1000 to 10000 nM.
On to `N#Cc1ccc(N2C3CCC2CN(C(=O)COC2(c4ccc(F)c(F)c4)CC2)C3)nn1` [Example 280, 6-(3-(2-(1-(3,4-difluorophenyl)cyclopropoxy)acetyl)-3,8-diazabicyclo[3.2.1]octan-8-yl)pyridazine-3-carbonitrile], for which the IC50 was in the range of 100 to 1000 nM.
Regarding `CC(c1ccccc1Br)S(=O)(=O)CCC(=O)N1CC2CCC(C1)N2c1ccc(C#N)cn1` (racemic) [Example 176, 6-(3-(3-((1-(2-bromophenyl)ethyl)sulfonyl)propanoyl)-3,8-diazabicyclo[3.2.1]octan-8-yl) nicotinonitrile], the IC50 fell in the range of 1000 to 10000 nM.
